Data reported in patent publication EP4603105A1, “PHARMACEUTICAL COMPOSITION CONTAINING CYCLIC COMPOUND HAVING SELECTIVE KRAS INHIBITORY EFFECT AGAINST HRAS AND NRAS” (CHUGAI SEIYAKU KABUSHIKI KAISHA, priority 2022, dated 2024).
*1 amine or outer side, *2 acyl side, *3 side chain or, on linkers, in order; H or OH if unused. Where a SMILES comes first, the peptide text is derived from it. Bridges are numbered along the chain shown (N, C = ends). [ ]: non-standard residue; d: D form. The star is where a group is joined. hPhe(3,5-F2-4-CF3) = N[C@@H](CCc1cc(F)c(C(F)(F)F)c(F)c1)C(=O)O; hPhe(3-Cl-4-CF3) = N[C@@H](CCc1ccc(C(F)(F)F)c(Cl)c1)C(=O)O; X22 = C=CCCN([C@@H](Cc1ccc(C(F)(F)F)cc1)C(=O)[*:2])[*:1]; NPrPhe(4-CF3) = CCCN[C@@H](Cc1ccc(C(F)(F)F)cc1)C(=O)O; X50 = C=CCN([C@@H](Cc1ccc(C)cc1)C(=O)[*:2])[*:1]; dαMeAlg = C[C@](CC=[*:3])(N[*:1])C(=O)[*:2]; NMeGly(cPent) = CN[C@H](C(=O)O)C1CCCC1; NMeSer(allyl) = C=CCOC[C@H](NC)C(=O)O; NMeAllylGly = C=CC[C@H](NC)C(=O)O; Hyp = O=C(O)[C@@H]1C[C@@H](O)CN1; NMeD = CN[C@@H](CC(=O)O)C(=O)O; NMeL = CN[C@@H](CC(C)C)C(=O)O; Morpholide = C1CN(*)CCO1; NMeA = CN[C@@H](C)C(=O)O; Ac5c = NC1(C(=O)O)CCCC1; Aze = O=C(O)[C@@H]1CCN1; Ac4c = NC1(C(=O)O)CCC1; Sar = CNCC(=O)O

Legend:
HRAS wild-type protein = HRAS wild-type protein (Homo sapiens, UniProt P01112); assay: Binding to HRAS by surface plasmon resonance (SPR), KD and KD ratio to KRAS
Sequence of HRAS wild-type protein (P01112 whole entry): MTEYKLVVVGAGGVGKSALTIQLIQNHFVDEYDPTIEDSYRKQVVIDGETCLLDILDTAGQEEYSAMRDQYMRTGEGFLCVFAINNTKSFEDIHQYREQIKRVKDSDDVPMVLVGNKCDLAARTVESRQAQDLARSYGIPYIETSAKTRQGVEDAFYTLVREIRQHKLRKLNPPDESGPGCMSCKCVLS
Summary of the method: (§1)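 Running buffer contained 10 µM GDP and 10 mM MgCl2 to keep RAS in the GDP state, with 4% DMSO at pH 7.4. Compounds were flowed at 100 µL/min in 75 s steps of rising concentration over captured biotin-Avi RAS at 30°C. Sensorgrams were fitted 1:1 for KD.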

[1] = target: GDP-bound NRAS wild-type protein (Homo sapiens, UniProt P01111); assay: Binding to NRAS by surface plasmon resonance (SPR), KD and KD ratio to KRAS
Sequence of GDP-bound NRAS wild-type protein (P01111 whole entry): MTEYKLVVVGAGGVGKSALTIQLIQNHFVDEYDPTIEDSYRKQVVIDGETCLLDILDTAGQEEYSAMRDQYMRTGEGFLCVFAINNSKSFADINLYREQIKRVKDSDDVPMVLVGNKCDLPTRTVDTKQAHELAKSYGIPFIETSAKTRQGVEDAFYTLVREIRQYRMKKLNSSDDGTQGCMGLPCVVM
Summary of the method: as §1

[2] = test system: human lung cancer strain NCI-H441; type: cell-based
Summary of the method: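 Step one: dispense the test compound in serial DMSO dilutions. Step three: add the reagent and measure […].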

[3] = ratio of the KD value with respect to HRAS wild-type protein to the KD value with respect to KRAS
[4] = ratio of the KD value with respect to GDP-bound NRAS wild-type protein to the KD value with respect to KRAS
[5] = ratio of KD for HRAS wild-type protein to KD for KRAS
[6] = ratio of KD for GDP-bound NRAS wild-type protein to KD for KRAS

Row | SMILES | HRAS /KRAS (HRAS wild-type protein; [3]) | NRAS /KRAS [1, 4] | IC50 [2] [nM] | HRAS /KRAS (HRAS wild-type protein; [5]) | NRAS /KRAS [1, 6]
1 | CCC[C@H]1C(=O)N[C@@H]([C@@H](C)CC)C(=O)N(C)CC(=O)N(C)[C@H]2C/C=C\CCN(C2=O)[C@@H](Cc2ccc(C)cc2)C(=O)N(C)CC(=O)N[C@@H](CCc2ccc(Cl)c(Cl)c2)C(=O)N2C[C@H](OCC)C[C@H]2C(=O)NC2(CC(C)(C)C2)C(=O)N(C)[C@@H](C(CC)CC)C(=O)N(C)[C@H](C(=O)N(C)C)CC(=O)N1C [PP2184] | A (a compound having 10 or more and less than 20 is denoted as A) | AA (a compound having 20 or more is denoted as AA) | 29.2 | – | –
2 | CCO[C@@H]1C[C@H]2C(=O)NC3(CCC3)C(=O)N(C)[C@@H](CC(C)C)C(=O)N(C)[C@H](C(=O)N(C)C)CC(=O)N(C)[C@@H](CC)C(=O)N[C@@H]([C@@H](C)CC)C(=O)N(C)CC(=O)N(C)[C@H]3C/C=C\CCN(C3=O)[C@@H](Cc3ccc(C(F)(F)F)cc3)C(=O)N(C)CC(=O)N[C@@H](CCc3cc(F)c(C(F)(F)F)c(F)c3)C(=O)N2C1 [PP1089] | – | – | 57.3 | A (a compound having 10 or more and less than 20 is denoted as A) | AA (a compound having 20 or more is denoted as AA)
3 | CCO[C@@H]1C[C@H]2C(=O)NC3(CCC3)C(=O)N(C)[C@@H](C3CCCC3)C(=O)N(C)[C@H](C(=O)N(C)C)CC(=O)N(C)[C@@H](CC)C(=O)N[C@@H]([C@@H](C)CC)C(=O)N(C)CC(=O)N(C)[C@H]3C[C@@H](C)CCN(C3=O)[C@@H](Cc3ccc(C(F)(F)F)cc3)C(=O)N(C)CC(=O)N[C@@H](CCc3cc(F)c(C(F)(F)F)c(F)c3)C(=O)N2C1 [PP1020] | – | – | 18 | B (a compound having 3 or more and less than 10 is denoted as B) | C (A compound having a KD ratio of 0.1 or more and less than 3 is denoted as C)
4 | CCCN1C(=O)CN(C)C(=O)CN(C)C(=O)[C@H]([C@@H](C)CC)NC(=O)[C@H](CC(C)C)N(C)C(=O)C[C@@H](C(=O)N2CCOCC2)NC(=O)[C@H](C2CCCC2)N(C)C(=O)C2(CCCC2)NC(=O)[C@@H]2CCCN2C(=O)[C@H](CCc2ccc(C(F)(F)F)c(Cl)c2)NC(=O)CN(C)C(=O)[C@@H]1Cc1ccc(C(F)(F)F)cc1 [PP0146] ([NMeL]I[Sar][Sar][NPrPhe(4-CF3)][Sar][hPhe(3-Cl-4-CF3)]P[Ac5c][NMeGly(cPent)]D-Morpholide; lactam N-11) | – | – | 23.9 | B (a compound having 3 or more and less than 10 is denoted as B) | B (a compound having 3 or more and less than 10 is denoted as B)
5 | C=CCCN1C(=O)[C@@H]2CCN2C(=O)[C@H](C)N(C)C(=O)[C@H]([C@@H](C)CC)NC(=O)[C@H](CC(C)C)N(C)C(=O)C[C@@H](C(=O)N2CCOCC2)N(C)C(=O)[C@H](C2CCCC2)N(C)C(=O)C2(CCCC2)NC(=O)[C@@H]2CCCN2C(=O)[C@H](CCc2ccc(C(F)(F)F)c(Cl)c2)NC(=O)CN(C)C(=O)[C@@H]1Cc1ccc(C(F)(F)F)cc1 [PP0115] ([NMeL]I[NMeA][Aze][X22][Sar][hPhe(3-Cl-4-CF3)]P[Ac5c][NMeGly(cPent)][NMeD]-Morpholide; lactam N-11) | – | – | 2 | C (A compound having a KD ratio of 0.1 or more and less than 3 is denoted as C) | C (A compound having a KD ratio of 0.1 or more and less than 3 is denoted as C)
6 | CCCN1C(=O)[C@@H]2CCN2C(=O)[C@H](C)N(C)C(=O)[C@H]([C@@H](C)CC)NC(=O)[C@H](CC(C)C)N(C)C(=O)C[C@@H](C(=O)N(C)C)NC(=O)[C@H](C2CCCC2)N(C)C(=O)C2(CCC2)NC(=O)[C@@H]2CCCN2C(=O)[C@H](CCc2ccc(C(F)(F)F)c(Cl)c2)NC(=O)CN(C)C(=O)[C@@H]1Cc1ccc(C(F)(F)F)cc1 [PP0380] ([NMeL]I[NMeA][Aze][NPrPhe(4-CF3)][Sar][hPhe(3-Cl-4-CF3)]P[Ac4c][NMeGly(cPent)]D-NMe2; lactam N-11) | – | – | 16.4 | B (a compound having 3 or more and less than 10 is denoted as B) | C (A compound having a KD ratio of 0.1 or more and less than 3 is denoted as C)
7 | CC[C@H](C)[C@@H]1NC(=O)[C@@H]2CCCCCc3ccc(cc3)C[C@@H](C(=O)N(C)CC(=O)N[C@@H](CCc3ccc(C(F)(F)F)c(OC)c3)C(=O)N3C[C@H](OC(C)C)C[C@H]3C(=O)NC3(CC(C)(C)C3)C(=O)N(C)[C@@H](C3CCCC3)C(=O)N(C)[C@H](C(=O)N(C)C)CC(=O)N2C)N2CC/C=C\C[C@@H](C2=O)N(C)C(=O)CN(C)C1=O [PP3072] | – | – | 2.6 | B (a compound having 3 or more and less than 10 is denoted as B) | A (a compound having 10 or more and less than 20 is denoted as A)
8 | CCC[C@H]1C(=O)N[C@@H]([C@@H](C)CC)C(=O)N(C2CC2)CC(=O)N(C)[C@H]2C/C=C\CCN(C2=O)[C@@H](Cc2ccc(C(F)(F)F)cc2)C(=O)N(C)CC(=O)N[C@@H](CCc2ccc(C(F)(F)F)c(OC)c2)C(=O)N2C[C@H](OCC)C[C@H]2C(=O)N(C)C2(CCC2)C(=O)N(C)[C@@H](C2CCCC2)C(=O)N(C)[C@H](C(=O)N(C)C)CC(=O)N1C [PP2316] | A (a compound having 10 or more and less than 20 is denoted as A) | A (a compound having 10 or more and less than 20 is denoted as A) | 1.6 | – | –
9 | CC[C@H](C)[C@@H]1NC(=O)[C@H](CC)N(C)C(=O)C[C@@H](C(=O)N(C)C)N(C)C(=O)[C@H](C2CCCC2)N(C)C(=O)C2(CCC2)NC(=O)[C@@H]2C[C@H](N3CCC(F)(F)CC3)CN2C(=O)[C@H](CCc2cc(F)c(C(F)(F)F)c(F)c2)NC(=O)CN(C)C(=O)[C@H](Cc2ccc(C(F)(F)F)cc2)N2CCCC[C@@H](C2=O)N(C)C(=O)CN(C)C1=O [PP0732] | B (a compound having 3 or more and less than 10 is denoted as B) | C (A compound having a KD ratio of 0.1 or more and less than 3 is denoted as C) | 39.6 | – | –
10 | CCC[C@H]1C(=O)N[C@@H]([C@@H](C)CC)C(=O)N(C)CC(=O)N(C)[C@H]2CCCCN(C2=O)[C@@H](Cc2ccc(C(F)(F)F)cc2)C(=O)N(C)CC(=O)N[C@@H](CCc2cc(F)c(C(F)(F)F)c(F)c2)C(=O)N2C[C@H](OCC)C[C@H]2C(=O)NC2(CCC2)C(=O)N(C)[C@@H](C2CCCC2)C(=O)N(C)[C@H](C(=O)N2CCOCC2)CC(=O)N1C [PP0709] | B (a compound having 3 or more and less than 10 is denoted as B) | C (A compound having a KD ratio of 0.1 or more and less than 3 is denoted as C) | 1 | – | –
11 | CCCN1C(=O)CN(C)C(=O)CN(C)C(=O)[C@H]([C@@H](C)CC)NC(=O)[C@@H]2COCC=CC[C@@](C)(NC(=O)[C@@H]3C[C@@H](OCC)CN3C(=O)[C@H](CCc3cc(F)c(C(F)(F)F)c(F)c3)NC(=O)CN(C)C(=O)[C@@H]1Cc1ccc(C(F)(F)F)cc1)C(=O)N(C)[C@@H](C1CCCC1)C(=O)N(C)[C@H](C(=O)N1CCOCC1)CC(=O)N2C [PP0903] ([NMeSer(allyl)]I[Sar][Sar][NPrPhe(4-CF3)][Sar][hPhe(3,5-F2-4-CF3)][Hyp](Et)[dαMeAlg][NMeGly(cPent)][NMeD]-Morpholide; staple 1-9; lactam N-11) | – | – | 596 | C (A compound having a KD ratio of 0.1 or more and less than 3 is denoted as C) | B (a compound having 3 or more and less than 10 is denoted as B)
12 | CC[C@H](C)[C@@H]1NC(=O)[C@H](CC(C)C)N(C)C(=O)C[C@@H](C(=O)N2CCOCC2)N(C)C(=O)[C@H](C2CCCC2)N(C)C(=O)C2(CCC2)NC(=O)[C@@H]2[C@H](OC)CCN2C(=O)[C@H](CCc2cc(F)c(C(F)(F)F)c(F)c2)NC(=O)CN(C)C(=O)[C@H](Cc2ccc(C(F)(F)F)cc2)N2CCCC[C@@H](C2=O)N(C)C(=O)CN(C)C1=O [PP1084] | – | – | 83.9 | B (a compound having 3 or more and less than 10 is denoted as B) | C (A compound having a KD ratio of 0.1 or more and less than 3 is denoted as C)
13 | C=CC[C@H]1C(=O)N(CC=C)[C@@H](Cc2ccc(C)cc2)C(=O)N(C)CC(=O)N[C@@H](CCc2ccc(C(F)(F)F)c(Cl)c2)C(=O)N2CCC[C@H]2C(=O)NC2(CCCC2)C(=O)N(C)[C@@H](C2CCCC2)C(=O)N(C)[C@H](C(=O)N2CCOCC2)CC(=O)N(C)[C@@H](CC(C)C)C(=O)N[C@@H]([C@@H](C)CC)C(=O)N(C)CC(=O)N1C [PP0139] ([NMeL]I[Sar][NMeAllylGly][X50][Sar][hPhe(3-Cl-4-CF3)]P[Ac5c][NMeGly(cPent)][NMeD]-Morpholide; lactam N-11) | – | – | 1500 | C (A compound having a KD ratio of 0.1 or more and less than 3 is denoted as C) | C (A compound having a KD ratio of 0.1 or more and less than 3 is denoted as C)
14 | CCC[C@H]1C(=O)N[C@@H]([C@@H](C)CC)C(=O)N(C2CC2)CC(=O)N(C)[C@H]2C/C=C\CCN(C2=O)[C@@H](Cc2ccc(C)cc2)C(=O)N(C)CC(=O)N[C@@H](CCc2cc(F)c(Cl)c(OC)c2)C(=O)N2C[C@H](OCC)C[C@H]2C(=O)NC2(CC(C)(C)C2)C(=O)N(C)[C@@H](C2CCCC2)C(=O)N(C)[C@H](C(=O)N(C)C)CC(=O)N1C [PP2871] | – | – | 28.4 | A (a compound having 10 or more and less than 20 is denoted as A) | A (a compound having 10 or more and less than 20 is denoted as A)
15 | CCO[C@@H]1C[C@H]2C(=O)NC3(CCC3)C(=O)N(C)[C@@H](C3CCCC3)C(=O)N(C)[C@H](C(=O)N(C)C)CC(=O)N(C)[C@@H](Cc3ccc(F)cc3)C(=O)N[C@@H]([C@@H](C)CC)C(=O)N(C)CC(=O)N(C)[C@H]3CCCCCN(C3=O)[C@@H](Cc3ccc(C(F)(F)F)cc3)C(=O)N(C)CC(=O)N[C@@H](CCc3cc(F)c(C(F)(F)F)c(F)c3)C(=O)N2C1 [PP0936] | – | – | 42.4 | B (a compound having 3 or more and less than 10 is denoted as B) | B (a compound having 3 or more and less than 10 is denoted as B)
